Experimental data taken from patent US20230272357A1, “METHODS OF GENOME EDITING INCLUDING CONTROLLED OPENING OF CHROMATIN” (Wisconsin Alumni Research Foundation, priority 2021, published 2023).

Key:
Type in all cases: cell-based, human
[1] = system: HIST1H2BJ-GFP locus; assay: CRISPR-Cas9 gene editing efficiency by flow cytometry (GFP- cells)
Procedure: SpyCas9 RNP preparation: RNPs were produced by complexing a two-component gRNA to SpyCas9. In brief, tracr-RNA and crRNA were ordered from IDT, suspended in nuclease-free duplex buffer at 100 μM, and stored in single-use aliquots at −20° C. tracrRNA and crRNA were thawed, and 0.0625 μL of each component was mixed 1:1 by volume and annealed by incubation at room temperature for 5 minutes to form a 50 μM sgRNA solution for each well of a 96 well plate. Recombinant sNLS-SpCas9-sNLS Cas9 (Aldevron, 10 mg/mL) was added to the complexed gRNA at a 1:1 molar ratio (1000 ng/well, Total 0.1 μL) and incubated for 5 minutes at room temperature to form RNP.
RNP delivery: iPSCs were singularized using Accutase™ and counted using a Countess® II FL Automated Cell Counter (Thermo Fisher Scientific) with 0.4% Trypan Blue viability stain (Thermo Fisher Scientific). iPSCs were then seeded at 15,000 cells/well on 96 well glass bottom plates (Cellvis) in mTeSR1 (WiCell) and 10 μM ROCK inhibitor (Y27632, Selleckchem), two days before lipofection or electroporation. On the following day, iPSCs were treated with TSA (0-200 ng/mL) for 16-24 hours. iPSC lipofections were performed using 0.5 μL Lipofectamine Stem Cell Reagent/well (1000 ng Cas9/well and sgRNA at 1:1 molar ratio). Cells remained undisturbed for 48 hours and were then passaged 1:4 using ReLeSR™ solution followed by daily mTeSR1 media changes for 4 additional days before downstream analysis.
Flow cytometry and fluorescence activated cell sorting: Flow cytometry was performed on singularized iPSCs using Attune™ Nxt flow cytometer (ThermoFisher Scientific) and analyzed using the FlowJo Software. Ghost Dye™ Red 780, ATTO 550, and GFP fluorescence were detected using 780/60, 585/16, and 530/30 filters in […] positions, respectively. Gates were established by running singularized untransfected iPSCs. The percentage of viable cells was calculated as the ratio of Ghost Dye™ Red 780-cells to the total number of single cells. Transfection efficiency was calculated as the percentage of ATTO 550+ cells to the total number of viable cells on day 2 post-transfection. Gene editing efficiency was calculated as the percentage of GFP-cells to the total number of viable cells on day 6 post-transfection. For the sorting experiments, iPSCs were singularized 6 days post-transfection using Accutase™, washed with PBS+20 μM ROCK inhibitor, centrifuged at 300 g for 5 minutes. Ghost Dye™ Red 780 viability dye (Tonbo Biosciences) was then added at 1:1000 concentration for 20 minutes at room temperature. Cells were washed again with PBS+20 μM ROCK inhibitor, spun down at 300 g for 5 minutes, and resuspended in 300 μL of FACS buffer (PBS+2% BSA+20 μM ROCK inhibitor). GFP-cells were then sorted into tubes containing mTeSR1+20 μM ROCK inhibitor, and seeded onto Matrigel®-coated 6 well polystyrene plates at 100 cells/well to obtain single-cell iPSC clones.
A simple, yet robust, workflow has been developed to introduce mutations in iPSCs without extensive use of deep sequencing (FIG. 1A). A mono-allelic mEGFP tagged HIST1H2BJWTC-11 human iPSC line (tag at C-terminus) was used as it provides two-fold advantages. […] Second, these iPSCs enable in situ live imaging of their cell nuclei to monitor chromatin changes during the process of CRISPR-Cas9 gene editing. An Alt-R® CRISPR-Cas9 2-part single guide RNA (sgRNA) system (IDT) was employed, which consists of 1) crRNA sequence to target the mEGFP locus in iPSCs (FIG. 1B), and 2) ATTO™ 550 fluorescent dye labelled tracrRNA that binds to Cas9. A range of TSA concentrations (0-200 ng/mL) were tested on iPSCs to determine the effect of TSA on cell viability. […] TSA concentrations of 0, 3.13, 6.25, and 12.5 ng/mL for further studies. Next, a range of TSA treatment durations (0-24 hours) were assessed and two methods for delivery for the Cas9 RNP complex (lipofection and electroporation) were also assessed to determine the optimal conditions for gene editing. […]

[2] = system: iPSCs; assay: Single-cell ATAC sequencing, local chromatin accessibility; settings: upon TSA treatment, data not shown
Procedure: Briefly, 1,50,000 cells were added to a 2 mL microcentrifuge tube and centrifuged at 300 g for 45 min at 4° C. The supernatant was removed without disrupting the cell pellet, and 100 μL chilled Lysis Buffer (10 mM Tris-HCl (pH 7.4), 10 mM NaCl, 3 mM MgCl2, 0.1% Tween-20, 0.1% Nonidet® P40 Substitute, 0.01% digitonin and 1% BSA) was added and mixed 10 times. The microcentrifuge tube was then incubated on ice for 5 min. Following lysis, 1 ml chilled Wash Buffer (10 mM Tris-HCl (pH 7.4), 10 mM NaCl, 3 mM MgCl2, 0.1% Tween-20 and 1% BSA) was added and the resulting solution was mixed 5 times. Nuclei were centrifuged at 500 g for 5 min at 4° C. and the supernatant was removed without disrupting the nuclei pellet. Nuclei were resuspended in chilled Diluted Nuclei Buffer (10× Genomics; 2000153) at approximately 6,000 nuclei per μL. The resulting nuclei concentration was then determined with a Countess® II FL Automated Cell Counter using trypan blue inclusion. Nuclei were then immediately used to generate scATAC-seq libraries according to the Chromium Single Cell ATAC Reagent Kits User Guide v1.1 (10× Genomics; 000209 Rev D). Libraries were sequenced using the Illumina NovaSeq 6000 system using S1 flow cell and target depth of 30k-37k reads/nuclei. FASTQ files were aligned with Cellranger ATAC 2.0 to custom reference Human GRCh38 genome. […]

[3] = system: iPSCs; assay: iPSC morphology during long-term culture of edited cells; settings: long-term culture of the edited cells, 6.25 ng/mL TSA

CC(/C=C/C(=O)NO)=C\[C@@H](C)C(=O)c1ccc(N(C)C)cc1 [TSA, Trichostatin A]
Gene editing efficiency (% GFP- cells/viable cells) upon TSA treatment ([1]; TSA 0-12.5 ng/mL, FIG. 1D): increases | Increase in gene editing efficiency (% GFP- cells/viable cells) ([1]; TSA 6.25 ng/mL, day 6 after Cas9 RNP delivery): 2-3 fold | Gene editing efficiency on additional increase of TSA concentration ([1]; TSA 12.5 ng/mL vs 6.25 ng/mL): did not increase the editing efficiency further | Increase in gene editing efficiency of iPSCs ([1]; chromatin decondensation via TSA, summary statement): 2-3 fold | Relation between gene editing efficiency (% GFP- cells/viable cells) and dose of TSA ([1]; concentrations up to 6.25 ng/mL, day 6): positive correlation | TSA treatment duration yielding the highest gene editing efficiencies ([1]; durations 0-24 hours assessed, data not shown): 20 h | Local chromatin accessibility at the off-target sites [2]: no significant increase | Local chromatin accessibility at the on-target sites [2]: increase | iPSC morphology [3]: no changes
